This note sets out measurements from patent US10947229B2, “Dimethyl amino azetidine amides as JAK inhibitors” (THERAVANCE BIOPHARMA R&D IP, LLC, priority 2018, dated 2021).

For this test, the system named is IL-12 stimulated STAT4 phosphorylation in CD3+ T cells. The test can be described thus: Cellular JAK potency assay: inhibition of IL-12-induced pSTAT4. It is filed as cell-based. Particulars: T-cell; CD3+ T cells from human whole blood; read-out: pIC50, inhibition of IL-12-induced pSTAT4 (converted). How it is done:
The potency of test compounds for inhibition of interleukin-12 (IL-12) stimulated STAT4 phosphorylation was measured in CD3-positive (CD3+) T cells derived from human whole blood (Stanford Blood Center) using flow cytometry. Because IL-12 signals through JAK, this assay provides a measure of JAK cellular potency. CD3+ T cells were identified using a phycoerythrin (PE) conjugated anti-CD3 antibody (clone UCHT1, BD Biosciences), and an Alexa Fluor 647 conjugated anti-pSTAT4 antibody (clone 38/p-Stat4, BD Biosciences) was used to detect STAT4 phosphorylation. Human peripheral blood mononuclear cells (PBMC) were isolated from human whole blood of healthy donors using a ficoll gradient. […] After incubation, cells were washed twice in FACS buffer before being analyzed using a MACSQuant flow cytometer (Miltenyi). To determine the inhibitory potency of the test compound, the median fluorescent intensity (MFI) of pSTAT4 was measured in CD3+ T cells. IC50 values were determined from analysis of the inhibition curves of MFI vs compound concentration. Data are expressed as pIC50 (negative decadic logarithm IC50) values.

As to `CCc1cc(O)ccc1-c1ccc2c(-c3nc4c([nH]3)CN(C(C)C)[C@H](C(=O)N3CC(N(C)C)C3)C4)n[nH]c2c1` [Compound 1, (S)-(3-(dimethylamino)azetidin-1-yl)(2-(6-(2-ethyl-4-hydroxyphenyl)-1H-indazol-3-yl)-5-isopropyl-4,5,6,7-tetrahydro-3H-imidazo[4,5-c]pyridin-6-yl)methanone], the IC50 is 1000 nM.
